In patent US20080287514A1, “Topical compositions containing metronidazole” (priority 2007, published 2008):

Columns and labels:
[1] = at 25 °C; cited from earlier work
[2] = Physical stability test (crystal formation or precipitation after 24 hours at room temperature and 7 days at about 4 °C); type: physicochemical; details: for Results from stability test: aqueous solution, 7 days at about 4 °C
Procedure: The solubility enhancing effect of the combination of niacinamide and hydroxyalkyl urea in increasing the solubility of metronidazole in the aqueous compositions is evaluated by physical stability of the prepared compositions.
Therefore, the compositions in accordance with the present invention are subject to a physical stability test. The protocol for the stability test is as follows: metronidazole and the solubility enhancing agents are combined with water either at room temperature or elevated temperature while stirring until dissolved. The solutions are permitted to cool to room temperature. Customary auxiliaries and additives may be added to the aqueous solutions containing solubilized metronidazole and solubility enhancing agents. The solutions may be gelled by using the suitable gelling agents. The compositions both in gel or solution form are then packaged in clear glass vials and sealed. The vials are kept at room temperature for 24 hours and monitored for crystal formation or precipitation. After 24 hours, the vials are placed in a refrigerator maintained at a temperature of about 4° C. for 7 days. After 7 days, the vials are removed from the refrigerator. Evidence of crystal formation or precipitation in the compositions is examined.
(§1) Each formulation was prepared by combining niacinamide and metronidazole in water (q.s 100%). The mixture was kept at a temperature of about 45° C. while stirring until dissolved. The solutions were permitted to cool to room temperature, packaged and sealed in glass vials. The stability tests described in Example 1 were performed and the test results were recorded.
as §1, with “N-2-hydroxyethyl urea” for “niacinamide”, “(q.s.” for “(q.s”
as §1, with “N-2-hydroxyethyl urea, niacinamide,” for “niacinamide”, “(q.s.” for “(q.s”, “100%). N-2-hydroxyethyl urea is available from a number of commercial sources, for example, Aldrich Chemical Company (Milwaukee, Wis.).” for “100%).”, “kept either at room temperature or” for “kept”

## NC(=O)c1cccnc1 [niacinamide]
[1]
  water solubility limit: about 50 % by weight
[2]; concentration of N-2-hydroxyethyl urea is 1.0%
  concentration of niacinamide needed to obtain a stable aqueous solution of 1.0% metronidazole: about 4.0%
[2]; from Examples 2 and 3, 1.0% metronidazole
  N-2-hydroxyethyl urea functionally equivalent to 1% niacinamide in inducing the solubility enhancing effect: about 3.2%
[2]; niacinamide as the only solubility enhancing agent
  concentration of niacinamide required to obtain a stable aqueous solution of 1.0% metronidazole: about 5%

## Cc1ncc([N+](=O)[O-])n1CCO [Metronidazole, 1-(2-hydroxyethyl)-2-methyl-5-nitroimidazole]
[2]; 1.0% metronidazole, 1.0% N-2-hydroxyethyl urea, 3.0% niacinamide
  Results from stability test: Crystals
[2]; 1.0% metronidazole, 1.0% N-2-hydroxyethyl urea, 4.0% niacinamide
  Results from stability test: Clear
[2]; 1.0% metronidazole, 2% niacinamide
  Results from stability test: Crystals formed
[2]; 1.0% metronidazole, 3.0% N-2-hydroxyethyl urea, 3.0% niacinamide
  Results from stability test: Clear
[2]; 1.0% metronidazole, 3% niacinamide
  Results from stability test: Crystals formed
[2]; 1.0% metronidazole, 4.0% N-2-hydroxyethyl urea, 1.0% niacinamide
  Results from stability test: Crystals
[2]; 1.0% metronidazole, 4% niacinamide
  Results from stability test: Crystals formed
[2]; 1.0% metronidazole, 5.0% N-2-hydroxyethyl urea, 1.0% niacinamide
  Results from stability test: Clear
[2]; 1.0% metronidazole, 5.0% N-2-hydroxyethyl urea, 1.0% niacinamide, listed as metronidazole
  Results from stability test: stable
[2]; 1.0% metronidazole, 5.0% N-2-hydroxyethyl urea, 2.0% niacinamide
  Results from stability test: Clear
[2]; 1.0% metronidazole, 5% niacinamide
  Results from stability test: Clear
[2]; 1.0% metronidazole, 13% N-2-hydroxyethyl urea
  Results from stability test: Crystals formed
[2]; 1.0% metronidazole, 14% N-2-hydroxyethyl urea
  Results from stability test: Crystals formed
[2]; 1.0% metronidazole, 15% N-2-hydroxyethyl urea
  Results from stability test: Crystals formed
[2]; 1.0% metronidazole, 16% N-2-hydroxyethyl urea
  Results from stability test: Clear
[2]; 1.2% metronidazole, 10.0% N-2-hydroxyethyl urea, 2.0% niacinamide
  Results from stability test: Clear

## NC(=O)NCCO [N-2-hydroxyethyl urea]
[2]; N-2-hydroxyethyl urea as the only solubility enhancing agent
  concentration of N-2-hydroxyethyl urea required to obtain a stable aqueous solution of 1.0% metronidazole: about 16%
[2]; concentration of niacinamide is 1.0%
  concentration of N-2-hydroxyethyl urea needed to obtain a stable aqueous solution of 1.0% metronidazole: ≥ 5.0%
